The values below are quoted from earlier work in patent US20180128811A1 (JNC Corporation, priority 2012, published 2018).

For the data set the following is noted: small doses (about less than 250 mg), first-order kinetics; cited from earlier work.

As to `CC(=O)Oc1ccccc1C(=O)O` [aspirin, acetylsalicylic acid], the Elimination half-life entry is given as “about 4 hours”.
